2 molecules from US9718781B2, “Methods and compounds for treating proliferative disorders and viral infections” (University College Dublin, National University of Ireland, …, priority 2012, dated 2017) can be followed below.

Read-outs that look alike come from different tables or passages of the source.

The test system of the test is human platelets. The experiment in a line: U46619-induced human platelet aggregation ex vivo (platelet rich plasma). In kind it is cell-based. An excerpt: A modification of the turbidimetric method originally developed by Born & Cross (Born, G. V. and Cross, M. J., The Aggregation of Blood Platelets, J Physiol, 1963, 168:178-95) is used. The principle is based on the diffraction of the light by particles. When a light beam passes through a suspension of particles, it is diffracted, depending on the number and the size of the particles in suspension.
In the Born & Cross method, a light beam passes through a platelet suspension and the quantity of light is measured by a detector placed after the sample. Upon platelet aggregation, the size of platelet aggregates will increase while the total number of free platelets will decrease. Consequently, less light will be diffracted and the detector will record an increase in light intensity. The aggregometer has been developed based on these concepts. Variations in light transmission recorded by this device reflects the platelet physiology. When an agonist of platelet aggregation is added to a platelet suspension, platelets undergo activation and shape change. This step is characterized by an increase in platelet's apparent volume and thus a decrease of transmitted light. Subsequent platelet aggregation gradually forms aggregates of increasing size. Transmitted light slightly increases until a plateau is reached. The aggregation of platelet can be confirmed after the experiment by visual direct inspection of the test tube.
Preparation of platelet suspension is achieved by blood centrifugation at 160 g for 10 minutes. The PRP is re-centrifuged at 160 g for 10 min to remove contaminating red and white blood cells. The supernatant which is collected contains the platelets rich plasma (PRP). The remaining blood is subsequently centrifuged at 900 g for 15 min in order to retrieve plasma (platelets poor plasma, PPP). PRP is diluted with PPP to reach a final concentration of 150×10^3 […] PRP is kept warmed at 37° C. in the aggregometer and the adequate dilution of drug to test is introduced in the sample. Platelet aggregation is induced after 10 minutes incubation. Light transmission (T) is measured throughout the experiment, which is ended 8 minutes after induction of aggregation. Maximal light transmission (Tmax) is determined in the sample without drugs. Minimal light transmission (Tmin) is measured in PRP without inducer.
The effect of NTP4 and the previously identified lead TP antagonist, TP20, on U46619-mediated platelet aggregation in side-by-side comparisons was performed in platelet rich plasma (PRP) using the PAP-8E platelet aggregometer.
FIG. 4A-4C show the effect of TP20 & NTP4 on U46619-mediated platelet aggregation. PRP was prepared from blood taken from healthy volunteers into syringes containing 3.8% sodium citrate and 10 μM indomethacin such that the final ratio of anticoagulant to blood was 1:9. Aliquots of PRP (300 μl) were pre-incubated for 10 min with the TP antagonists, TP20 and NTP4, where 2-fold serial dilutions from 1 μM were prepared for each, prior to stimulating platelets with 1 μM U46619, incubated at 37° C., with stirring. FIG. 4A and FIG. 4B: Representative dose-response platelet aggregation profiles for TP20 (FIG. 4A) and NTP4 (FIG. 4B), where data is presented as Percentage Aggregation, as determined by changes in light transmission using the PAP-8E Platelet Aggregation Profiler as a function of time. FIG. 4C: The dose-response curves for platelet aggregation are presented as the mean (±S.E.M.) maximum Percentage Aggregation as a function of the log of the TP antagonist concentration. Data presented is representative of ≧6 independent experiments.

[1] abbreviates: PRP, PAP-8E aggregometer, 1 μM U46619, side-by-side, read-out: IC50 Value for Inhibition of U46619-Mediated Platelet Aggregation (Mean ± S.E.M.).

For orientation: IC50 means the concentration that gives 50% inhibition. Consider `COc1ccc(-c2cccc(Oc3ccc([N+](=O)[O-])cc3S(=O)(=O)NC(=O)NC(C)(C)C)c2)cc1` [TP20, N-(tert-butylcarbamoyl)-2-((4′-methoxy-[1,1′-biphenyl]-3-yl)oxy)-5-nitrobenzene-sulfonamide], for which the IC50 (Homo sapiens, Platelet, human platelets ex vivo, Table 3, read-out: IC50 data for inhibition of U46619-induced platelet aggregation) is 4.71 nM and the IC50 under setting [1] was 4.62 ± 0.72 nM.
Consider `COc1ccc(-c2cccc(Oc3ccc(C#N)cc3S(=O)(=O)NC(=O)NC(C)(C)C)c2)cc1` [NTP4, N-(tert-butylcarbamoyl)-5-cyano-2-((4′-methoxy-[1,1′-biphenyl]-3-yl)oxy)benzenesulfonamide], for which the IC50 is, setting by setting: (Homo sapiens, Platelet, PRP, PAP-8E aggregometer, 1 μM U46619, side-by-side, read-out: IC50 Value for Inhibition of U46619-Mediated Platelet Aggregation (Mean ± S.E.M.)) 41.5 ± 7.69 nM; under setting [1], 40.3 ± 7.08 nM.
